In ChEMBL document CHEMBL1629695, “A novel polymyxin derivative that lacks the fatty acid tail and carries only three positive charges has strong synergism with agents excluded by the intact outer membrane” (Antimicrob Agents Chemother, 2010):
In brackets after ≈: the same amount, converted by molar mass. Bridge positions count the residues as written; N and C are the ends. Square brackets hold non-standard residues; d marks the D form. Peptide text beside a SMILES is read from it. * marks the point of attachment. Octanoyl = CCCCCCCC(=O)*; Dab = NCC[C@H](N)C(=O)O; Abu = CC[C@H](N)C(=O)O

Experiments:
Escherichia coli [1] = test: Antimicrobial activity against Escherichia coli ATCC 25922 in presence of 2 ug/ml NAB741; type: functional
Acinetobacter baumannii [2] = test: Ratio of MIC for Acinetobacter baumannii ATCC 19606 to MIC for Acinetobacter baumannii ATCC 19606 in presence of 4 ug/ml of NAB741; type: functional
Acinetobacter baumannii [3] = test: Antimicrobial activity against in Acinetobacter baumannii ATCC 19606 in presence of NAB741; type: functional
Acinetobacter baumannii [4] = test: Antimicrobial activity against Acinetobacter baumannii ATCC 19606 by Etest method; type: functional
Escherichia coli [5] = test: Antimicrobial activity against Escherichia coli ATCC 25922 in presence of 8 ug/ml NAB741; type: functional
Klebsiella pneumoniae [6] = test: Ratio of MIC for Klebsiella pneumoniae ATCC 13883 to MIC for Klebsiella pneumoniae ATCC 13883 in presence of 4 ug/ml of NAB741; type: functional
Enterobacter cloacae [7] = test: Antimicrobial activity against Enterobacter cloacae ATCC 23355 by Etest method; type: functional
Escherichia coli [8] = test: Antimicrobial activity against Escherichia coli IH3080 by Etest method; type: functional
Escherichia coli [9] = test: Antimicrobial activity against in Escherichia coli ATCC 25922 in presence of NAB741; type: functional
Escherichia coli [10] = test: Antimicrobial activity against Escherichia coli ATCC 25922 by Etest method in presence of 4 ug/ml NAB741; type: functional
Escherichia coli [11] = test: Antimicrobial activity against Escherichia coli ATCC 25922; type: functional
Escherichia coli [12] = test: Ratio of MIC for Escherichia coli ATCC 25922 to MIC for Escherichia coli ATCC 25922 in presence of 4 ug/ml of NAB741; type: functional
Escherichia coli [13] = test: Antimicrobial activity against Escherichia coli IH3080 by Etest method in presence of 4 ug/ml NAB741; type: functional
Klebsiella pneumoniae [14] = test: Antimicrobial activity against Klebsiella pneumoniae ATCC 13883 by Etest method in presence of 4 ug/ml NAB741; type: functional
Enterobacter cloacae [15] = test: Antimicrobial activity against Enterobacter cloacae ATCC 23355 by Etest method in presence of 4 ug/ml NAB741; type: functional
Enterobacter cloacae [16] = test: Antimicrobial activity against Enterobacter cloacae ATCC 23355 by Etest method in presence of 2 ug/ml NAB741; type: functional
Klebsiella pneumoniae [17] = test: Antimicrobial activity against in Klebsiella pneumoniae ATCC 13883 in presence of NAB741; type: functional
Enterobacter cloacae [18] = test: Ratio of MIC for Enterobacter cloacae ATCC 23355 to MIC for Enterobacter cloacae ATCC 23355 in presence of 4 ug/ml of NAB741; type: functional
Escherichia coli [19] = test: Antimicrobial activity against Escherichia coli ATCC 25922 by Etest method; type: functional
Escherichia coli [20] = test: Antimicrobial activity against Escherichia coli IH3080 by Etest method in presence of 2 ug/ml NAB741; type: functional
Escherichia coli [21] = test: Antimicrobial activity against Escherichia coli ATCC 25922 in presence of 32 ug/ml NAB741; type: functional
Acinetobacter baumannii [22] = test: Antimicrobial activity against Acinetobacter baumannii ATCC 19606 by Etest method in presence of 2 ug/ml NAB741; type: functional
Klebsiella pneumoniae [23] = test: Antimicrobial activity against Klebsiella pneumoniae ATCC 13883 by Etest method in presence of 2 ug/ml NAB741; type: functional
Escherichia coli [24] = test: Antimicrobial activity against Escherichia coli ATCC 25922 in presence of […] ug/ml NAB741; type: functional
Enterobacter cloacae [25] = test: Antimicrobial activity against in Enterobacter cloacae ATCC 23355 in presence of NAB741; type: functional
Escherichia coli [26] = test: Antimicrobial activity against Escherichia coli ATCC 25922 by Etest method in presence of 2 ug/ml NAB741; type: functional
Klebsiella pneumoniae [27] = test: Antimicrobial activity against Klebsiella pneumoniae ATCC 13883 by Etest method; type: functional
Acinetobacter baumannii [28] = test: Antimicrobial activity against Acinetobacter baumannii ATCC 19606 by Etest method in presence of 4 ug/ml NAB741; type: functional
Escherichia coli [29] = test: Ratio of MIC for Escherichia coli IH3080 to MIC for Escherichia coli IH3080 in presence of 4 ug/ml of NAB741; type: functional
Escherichia coli [30] = test: Antimicrobial activity against Escherichia coli ATCC 25922 in presence of 4 ug/ml NAB741; type: functional
Escherichia coli [31] = test: Antimicrobial activity against in Escherichia coli IH3080 in presence of NAB741; type: functional
[32] = (§1) Drug level in Sprague-Dawley rat urine at 1 mg/kg, iv; type: ADME, organism-based; parameters: dose 1 mg/kg, route intravenous; conditions: Sprague-Dawley, urine, read-out: Drug uptake
Rattus norvegicus [33] = test: Volume of distribution in Sprague-Dawley rat at 1 mg/kg, iv; type: ADME, organism-based; parameters: dose 1 mg/kg, route intravenous; conditions: in vivo
Rattus norvegicus [34] = test: as §1; type: ADME, organism-based; parameters: dose 1 mg/kg, route intravenous; conditions: in vivo
Rattus norvegicus [35] = test: Half-life in Sprague-Dawley rat at 1 mg/kg, iv; type: ADME, organism-based; parameters: dose 1 mg/kg, route intravenous; conditions: in vivo

CC[C@H]1OC(=O)[C@H](C)[C@@H](O[C@H]2C[C@@](C)(OC)[C@@H](O)[C@H](C)O2)[C@H](C)[C@@H](O[C@@H]2O[C@H](C)C[C@H](N(C)C)[C@H]2O)[C@](C)(OC)C[C@@H](C)C(=O)[C@H](C)[C@@H](O)[C@]1(C)O [CLARITHROMYCIN]
MIC (Escherichia coli [1]): 32 µg/mL
Ratio (Acinetobacter baumannii [2]): 12
fractional inhibitory concentration index (FICI) (Acinetobacter baumannii [3]): 0.156
MIC (Acinetobacter baumannii [4]): 8 µg/mL (≈ 10.7 µM)
MIC (Escherichia coli [5]): 0.5 µg/mL
Ratio (Klebsiella pneumoniae [6]): 6
MIC (Enterobacter cloacae [7]): 48 µg/mL (≈ 64.2 µM)
MIC (Escherichia coli [8]): 12 µg/mL (≈ 16 µM)
fractional inhibitory concentration index (FICI) (Escherichia coli [9]): 0.094
MIC (Escherichia coli [10]): 0.094 µg/mL
MIC (Escherichia coli [11]): ≥ 64 µg/mL
Ratio (Escherichia coli [12]): 84
MIC (Escherichia coli [13]): 0.125 µg/mL
MIC (Klebsiella pneumoniae [14]): 1 µg/mL
MIC (Enterobacter cloacae [15]): 0.5 µg/mL
MIC (Enterobacter cloacae [16]): 16 µg/mL
fractional inhibitory concentration index (FICI) (Klebsiella pneumoniae [17]): 0.167
Ratio (Enterobacter cloacae [18]): 64
MIC (Escherichia coli [19]): 16 µg/mL (≈ 21.4 µM)
MIC (Escherichia coli [20]): 1 µg/mL
MIC (Escherichia coli [21]): 0.063 µg/mL
MIC (Acinetobacter baumannii [22]): 0.75 µg/mL
MIC (Klebsiella pneumoniae [23]): 4 µg/mL
MIC (Escherichia coli [24]): 0.25 µg/mL
fractional inhibitory concentration index (FICI) (Enterobacter cloacae [25]): 0.135
MIC (Escherichia coli [26]): 0.5 µg/mL
MIC (Klebsiella pneumoniae [27]): 12 µg/mL (≈ 16 µM)
MIC (Acinetobacter baumannii [28]): 0.5 µg/mL
Ratio (Escherichia coli [29]): 64
MIC (Escherichia coli [30]): 1 µg/mL
fractional inhibitory concentration index (FICI) (Escherichia coli [31]): 0.126

CC[C@H]1OC(=O)[C@H](C)[C@@H](O[C@H]2C[C@@](C)(OC)[C@@H](O)[C@H](C)O2)[C@H](C)[C@@H](O[C@@H]2O[C@H](C)C[C@H](N(C)C)[C@H]2O)[C@](C)(O)C[C@@H](C)CN(C)[C@H](C)[C@@H](O)[C@]1(C)O [AZITHROMYCIN]
Ratio (Acinetobacter baumannii [2]): 21
Ratio (Klebsiella pneumoniae [6]): 11
MIC (Escherichia coli [10]): 0.125 µg/mL
Ratio (Escherichia coli [12]): 16
MIC (Escherichia coli [13]): 0.094 µg/mL
MIC (Klebsiella pneumoniae [14]): 0.125 µg/mL
MIC (Enterobacter cloacae [15]): 0.25 µg/mL
Ratio (Enterobacter cloacae [18]): 16
MIC (Acinetobacter baumannii [28]): 1.5 µg/mL
Ratio (Escherichia coli [29]): 8

C/C(=C\C(=O)OCCCCCCCCC(=O)O)C[C@@H]1OC[C@H](C[C@@H]2O[C@H]2[C@@H](C)[C@H](C)O)[C@@H](O)[C@H]1O [MUPIROCIN]
Ratio (Acinetobacter baumannii [2]): <2
Ratio (Klebsiella pneumoniae [6]): 8
MIC (Escherichia coli [10]): 0.75 µg/mL
Ratio (Escherichia coli [12]): 64
MIC (Escherichia coli [13]): 1 µg/mL
MIC (Klebsiella pneumoniae [14]): 6 µg/mL
MIC (Enterobacter cloacae [15]): 0.25 µg/mL
Ratio (Enterobacter cloacae [18]): 50
MIC (Acinetobacter baumannii [28]): 512 µg/mL
Ratio (Escherichia coli [29]): 24

CCCCCCCC(=O)N[C@H](C(=O)N[C@H](CO)C(=O)N[C@H]1CCNC(=O)[C@H]([C@@H](C)O)NC(=O)[C@H](CCN)NC(=O)[C@H](CCN)NC(=O)[C@H](CC(C)C)NC(=O)[C@@H](Cc2ccccc2)NC(=O)[C@H](CCN)NC1=O)[C@@H](C)O (Octanoyl-T[dS][Dab][Dab][dF]L[Dab][Dab]T; lactam 3-C)
dose excreted [32]: 19.4%

CC(=O)O[C@H]1C[C@@]2(C)[C@@H](C[C@@H](O)[C@H]3[C@@]4(C)CC[C@@H](O)[C@@H](C)[C@@H]4CC[C@@]32C)/C1=C(\CCC=C(C)C)C(=O)O [FUSIDIC ACID]
Ratio (Acinetobacter baumannii [2]): >43
Ratio (Klebsiella pneumoniae [6]): >5
MIC (Escherichia coli [10]): 1.5 µg/mL
Ratio (Escherichia coli [12]): >170
MIC (Escherichia coli [13]): 2 µg/mL
MIC (Klebsiella pneumoniae [14]): 48 µg/mL
MIC (Enterobacter cloacae [15]): 2 µg/mL
Ratio (Enterobacter cloacae [18]): >130
MIC (Acinetobacter baumannii [28]): 6 µg/mL
Ratio (Escherichia coli [29]): >130

COLISTIN
Vd (Rattus norvegicus [33]): 0.496 L/kg
Drug uptake (Rattus norvegicus [34]): 0.18%
t1/2 (Rattus norvegicus [35]): 1.24 h

CO[C@H]1/C=C/O[C@@]2(C)Oc3c(C)c(O)c4c(O)c(c(/C=N/N5CCN(C)CC5)c(O)c4c3C2=O)NC(=O)/C(C)=C\C=C\[C@H](C)[C@H](O)[C@@H](C)[C@@H](O)[C@@H](C)[C@H](OC(C)=O)[C@@H]1C [RIFAMPIN]
MIC (Escherichia coli [1]): 4 µg/mL
fractional inhibitory concentration index (FICI) (Acinetobacter baumannii [3]): 0.131
MIC (Acinetobacter baumannii [4]): 1.5 µg/mL (≈ 1.82 µM)
MIC (Escherichia coli [5]): 0.25 µg/mL
MIC (Enterobacter cloacae [7]): 6 µg/mL (≈ 7.29 µM)
MIC (Escherichia coli [8]): 4 µg/mL (≈ 4.86 µM)
fractional inhibitory concentration index (FICI) (Escherichia coli [9]): 0.126
MIC (Escherichia coli [10]): 0.016 µg/mL
MIC (Escherichia coli [11]): 8 µg/mL (≈ 9.72 µM)
MIC (Escherichia coli [13]): 0.047 µg/mL
MIC (Klebsiella pneumoniae [14]): 0.5 µg/mL
MIC (Enterobacter cloacae [15]): 0.016 µg/mL
MIC (Enterobacter cloacae [16]): 1.5 µg/mL
MIC (Escherichia coli [19]): 4 µg/mL (≈ 4.86 µM)
MIC (Escherichia coli [20]): 0.19 µg/mL
MIC (Escherichia coli [21]): 0.031 µg/mL
MIC (Acinetobacter baumannii [22]): 0.19 µg/mL
MIC (Klebsiella pneumoniae [23]): 1 µg/mL
MIC (Escherichia coli [24]): 0.063 µg/mL
fractional inhibitory concentration index (FICI) (Enterobacter cloacae [25]): 0.126
MIC (Escherichia coli [26]): 0.64 µg/mL
MIC (Klebsiella pneumoniae [27]): 12 µg/mL (≈ 14.6 µM)
MIC (Acinetobacter baumannii [28]): 0.094 µg/mL
MIC (Escherichia coli [30]): 1 µg/mL
fractional inhibitory concentration index (FICI) (Escherichia coli [31]): 0.111

CN[C@H](CC(C)C)C(=O)N[C@H]1C(=O)N[C@@H](CC(N)=O)C(=O)N[C@H]2C(=O)N[C@H]3C(=O)N[C@H](C(=O)N[C@H](C(=O)O)c4cc(O)cc(O)c4-c4cc3ccc4O)[C@H](O)c3ccc(c(Cl)c3)Oc3cc2cc(c3O[C@@H]2O[C@H](CO)[C@@H](O)[C@H](O)[C@H]2O[C@H]2C[C@](C)(N)[C@H](O)[C@H](C)O2)Oc2ccc(cc2Cl)[C@H]1O [VANCOMYCIN]
Ratio (Acinetobacter baumannii [2]): >11
Ratio (Klebsiella pneumoniae [6]): >2
MIC (Escherichia coli [10]): 8 µg/mL
Ratio (Escherichia coli [12]): >32
MIC (Escherichia coli [13]): 16 µg/mL
MIC (Klebsiella pneumoniae [14]): 128 µg/mL
MIC (Enterobacter cloacae [15]): 1.5 µg/mL
Ratio (Enterobacter cloacae [18]): >170
MIC (Acinetobacter baumannii [28]): 24 µg/mL
Ratio (Escherichia coli [29]): >16

CCCCCCCC(=O)N[C@H](C(=O)N[C@@H](CC)C(=O)N[C@H]1CCNC(=O)[C@H]([C@@H](C)O)NC(=O)[C@H](CCN)NC(=O)[C@H](CCN)NC(=O)[C@H](CC(C)C)NC(=O)[C@@H](Cc2ccccc2)NC(=O)[C@H](CCN)NC1=O)[C@@H](C)O (Octanoyl-T[Abu][Dab][Dab][dF]L[Dab][Dab]T; lactam 3-C)
dose excreted [32]: 7.16%
